target: T1, Recombinant His-tagged NAMPT (Homo sapiens, UniProt P43490); experiment: Biochemical inhibition assay: NAMPT enzymatic reaction, NMN quantified by mass spectrometry; settings: 33 nM NAMPT, 1 μM NAM, 100 μM PRPP, 2.5 mM ATP, 30 minutes at room temperature; read-out: Biochem IC50
T1 construct: His; host or cells: E. coli
Protocol: Biochemical Inhibition Assay
NAMPT Protein Purification
Recombinant His-tagged NAMPT was produced in E. coli cells, purified over a Ni column, and further purified over a size-exclusion column by XTAL Biostructures.
The NAMPT Enzymatic Reaction
The NAMPT enzymatic reactions were carried out in Buffer A (50 mM Hepes pH 7.5, 50 mM NaCl, 5 mM MgCl2, and 1 mM THP) in 96-well V-bottom plates. The compound titrations were performed in a separate dilution plate by serially diluting the compounds in DMSO to make a 100× stock. […] The compound and enzyme mix was incubated for 15 minutes at room temperature, then 10 μL of 10× substrate and co-factors in Buffer A were added to the test well to make a final concentration of 1 μM NAM, 100 μM 5-Phospho-D-ribose 1-diphosphate (PRPP), and 2.5 mM Adenosine 5′-triphosphate (ATP). The reaction was allowed to proceed for 30 minutes at room temperature, then was quenched with the addition of 11 μL of a solution of formic acid and L-Cystathionine to make a final concentration of 1% formic acid and 10 μM L-Cystathionine. Background and signal strength was determined by addition (or non-addition) of a serial dilution of NMN to a pre-quenched enzyme and cofactor mix.
A mass spectrometry-based assay was used to measure the Nampt reaction product (NMN) and the internal control (L-Cystathionine). NMN and L-Cystathionine were detected using the services of Biocius Lifesciences with the RapidFire system. In short, the NMN and L-Cystathionine are bound to a graphitic carbon cartridge in 0.1% formic acid, eluted in 30% acetonitrile buffer, and injected into a Sciex 4000 mass spectrometer. The components of the sample were ionized with electrospray ionization and the positive ions were detected. […] The fragments are quantified and the analyzed by the following method.
First the NMN signal is normalized to the L-Cystathionine signal by dividing the NMN signal by the L-Cystathionine signal for each well. The signal from the background wells are averaged and subtracted from the test plates.
Wherein x denotes the average signal of the compound treated wells and y denotes the average signal of the DMSO treated wells.
IC50s are Determined Using Excel and this Formula.
Wherein X denotes the compound concentration 1, Y denotes the compound concentration 2, XX denotes the % inhibition at compound concentration 1 (X), and YY denotes the % inhibition at compound concentration 2 (Y).

T1 sequence (P43490 whole entry): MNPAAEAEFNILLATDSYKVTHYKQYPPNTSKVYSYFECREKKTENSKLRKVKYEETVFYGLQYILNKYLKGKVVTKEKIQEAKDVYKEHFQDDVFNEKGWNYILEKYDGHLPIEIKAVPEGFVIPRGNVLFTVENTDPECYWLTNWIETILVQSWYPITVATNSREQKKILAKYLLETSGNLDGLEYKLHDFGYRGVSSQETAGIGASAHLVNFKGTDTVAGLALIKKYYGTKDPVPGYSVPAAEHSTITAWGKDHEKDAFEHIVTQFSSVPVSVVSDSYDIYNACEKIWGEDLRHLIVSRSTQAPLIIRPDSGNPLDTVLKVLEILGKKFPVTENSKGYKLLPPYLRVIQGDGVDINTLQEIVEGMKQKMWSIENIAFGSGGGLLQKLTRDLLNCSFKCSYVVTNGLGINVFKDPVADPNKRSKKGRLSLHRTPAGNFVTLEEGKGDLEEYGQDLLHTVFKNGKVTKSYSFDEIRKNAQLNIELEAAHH

Row | Structure (SMILES) | IC50 [nM]
1 | O=C(NCCCC1CCN(C(=O)c2ccccc2)CC1)c1cc2cnccc2[nH]1 [N-(3-(1-benzoylpiperidin-4-yl)propyl)-1H-pyrrolo[3,2-c]pyridine-2-carboxamide] | 126
2 | O=C(NCCCOC1CCN(C(=O)c2ccccc2F)CC1)c1cc2cnccc2[nH]1 [N-(3-((1-(2-fluorobenzoyl)piperidin-4-yl)oxy)propyl)-1H-pyrrolo[3,2-c]pyridine-2-carboxamide] | 35
3 | Cn1cc(CC(=O)N2CCC(CCCCNC(=O)c3cc4cnccc4[nH]3)CC2)c2ccccc21 [N-(4-{1-[2-(1-methyl-1H-indol-3-yl)acetyl]piperidin-4-yl}butyl)-1H-pyrrolo[3,2-c]pyridine-2-carboxamide] | 9.1
4 | O=C(NCCCCC1CCN(C(=O)c2cc(F)ccc2F)CC1)c1cc2cnccc2[nH]1 [N-(4-{1-[(2,5-difluorophenyl)carbonyl]piperidin-4-yl}butyl)-1H-pyrrolo[3,2-c]pyridine-2-carboxamide] | 10.3
5 | O=C(NCCCCC1CCN(C(=O)c2ccccc2Cl)CC1)c1cc2cnccc2[nH]1 [N-(4-{1-[(2-chlorophenyl)carbonyl]piperidin-4-yl}butyl)-1H-pyrrolo[3,2-c]pyridine-2-carboxamide] | 15.8
6 | O=C(NCCCCC1CCN(C(=O)c2ccccc2Cl)CC1)c1ccc2nccn2c1 [N-(4-{1-[(2-chlorophenyl)carbonyl]piperidin-4-yl}butyl)imidazo[1,2-a]pyridine-6-carboxamide] | 5
7 | O=C(NCCCCC1CCN(C(=O)c2csc(-c3ccccc3)n2)CC1)c1ccc2nccn2c1 [N-(4-{1-[(2-phenyl-1,3-thiazol-4-yl)carbonyl]piperidin-4-yl}butyl)imidazo[1,2-a]pyridine-6-carboxamide] | 52.3
8 | Cc1ccc(C(=O)N2CCC(CCCCNC(=O)c3ccc4nccn4c3)CC2)cc1F [N-(4-{1-[(3-fluoro-4-methylphenyl)carbonyl]piperidin-4-yl}butyl)imidazo[1,2-a]pyridine-6-carboxamide] | 39.4
9 | O=C(NCCCCC1CCN(C(=O)c2cc3cc(F)ccc3[nH]2)CC1)c1ccc2nccn2c1 [N-(4-{1-[(5-fluoro-1H-indol-2-yl)carbonyl]piperidin-4-yl}butyl)imidazo[1,2-a]pyridine-6-carboxamide] | 71.3
10 | COc1ccc(F)cc1S(=O)(=O)N1CCC(CCCCNC(=O)c2cc3cnccc3[nH]2)CC1 [N-(4-{1-[(5-fluoro-2-methoxybenzene)sulfonyl]piperidin-4-yl}butyl)-1H-pyrrolo[3,2-c]pyridine-2-carboxamide] | 23.2
11 | O=C(NCCCCC1CN(C(=O)c2ccccc2)C1)c1cc2cnccc2[nH]1 [N-[4-(1-benzoylazetidin-3-yl)butyl]-1H-pyrrolo[3,2-c]pyridine-2-carboxamide] | 23.2
12 | CC(C)c1ncoc1C(=O)N1CCC(CCCCNC(=O)c2cc3ccncc3s2)CC1 [N-[4-(1-{[4-(propan-2-yl)-1,3-oxazol-5-yl]carbonyl}piperidin-4-yl)butyl]thieno[2,3-c]pyridine-2-carboxamide] | 7.4
13 | COCc1ccc(C(=O)N2CCC(CCCCNC(=O)c3cc4ccncc4s3)CC2)nc1 [N-[4-(1-{[5-(methoxymethyl)pyridin-2-yl]carbonyl}piperidin-4-yl)butyl]thieno[2,3-c]pyridine-2-carboxamide] | 18.3
14 | O=C(NCCCCC1CCN(C(=O)c2ccc(C(F)(F)F)cn2)CC1)c1ccc2nccn2c1 [N-[4-(1-{[5-(trifluoromethyl)pyridin-2-yl]carbonyl}piperidin-4-yl)butyl]imidazo[1,2-a]pyridine-6-carboxamide] | 82.3
15 | Cc1oncc1S(=O)(=O)N1CCC(CCCCNC(=O)c2cc3cnccc3[nH]2)CC1 [N-{4-[1-(5-methyl-1,2-oxazole-4-sulfonyl)piperidin-4-yl]butyl}-1H-pyrrolo[3,2-c]pyridine-2-carboxamide] | 36.7
16 | O=C(NCCCCC1CCN(C(=O)c2ccc3nccn3c2)CC1)c1ccc2nccn2c1 [N-{4-[1-({imidazo[1,2-a]pyridin-6-yl}carbonyl)piperidin-4-yl]butyl}imidazo[1,2-a]pyridine-6-carboxamide] | 8.5
17 | O=C(NCc1ccc(S(=O)(=O)c2ccc(C(=O)N3CCCC3)cc2)cc1)c1cnc2[nH]ncc2c1 [N-{[4-({4-[(pyrrolidin-1-yl)carbonyl]benzene}sulfonyl)phenyl]methyl}-1H-pyrazolo[3,4-b]pyridine-5-carboxamide] | 15.8
18 | O=C(NCc1ccc(S(=O)(=O)c2ccc(C(=O)N3CCCC3)cc2)cc1)c1cc2ccncc2s1 [N-{[4-({4-[(pyrrolidin-1-yl)carbonyl]benzene}sulfonyl)phenyl]methyl}thieno[2,3-c]pyridine-2-carboxamide] | 3.7

system: A2780 cells; experiment: In-vitro cell proliferation assay (SRB, 72 hours); assay type: cell-based; settings: Homo sapiens, sulforhodamine B (SRB) assay
Protocol: In-Vitro Cell Proliferation Assay
After overnight incubation at 37° C. and 5% CO2, the compound titrations were performed in a separate dilution plate by serially diluting the compounds in DMSO to make a 1000× stock. The compounds were then further diluted to 10× final concentration in culture media, whereupon 20 μL of each dilution was added to the plated cells with controls (e.g. DMSO and blank) to make a final volume of 200 μL. The final DMSO concentration in each well was 0.1%. The plates were then incubated for 72 hours at 37° C. in a 5% CO2 incubator. The number of viable cells was then assessed using sulforhodamine B (SRB) assay. Cells were fixed at 4° C. for 1 hour with the addition of 50 μL 30% trichloroacetic acid (TCA) to make a final concentration of 6% TCA. The plates were washed four times with H2O and allowed to dry for at least 1 hour, whereupon 100 μL of a 4% SRB in 1% acetic acid solution was added to each well and incubated at room temperature for at least 30 minutes. The plates were then washed three times with 1% acetic acid, dried, and treated with 100 μL of 10 mM Tris-Base solution. The plates were then read in a microplate reader at an absorbance of 570 nm. Background was generated on a separate plate with media only.
Method for Determining % Inhibition
First, the signals from the background plate are averaged, then the background was subtracted from the test plates.
wherein x denotes the average signal of the compound-treated cells and y denotes the average signal of the DMSO-treated cells.
wherein X denotes the compound concentration 1, Y denotes the compound concentration 2, XX denotes the % inhibition at compound concentration 1 (X), and YY denotes the % inhibition at compound concentration 2 (Y).

Row | Structure (SMILES) | IC50 [nM]
19 | O=C(NCCCC1CCN(C(=O)c2ccccc2)CC1)c1cc2cnccc2[nH]1 [N-(3-(1-benzoylpiperidin-4-yl)propyl)-1H-pyrrolo[3,2-c]pyridine-2-carboxamide] | 432
20 | O=C(NCCCOC1CCN(C(=O)c2ccccc2F)CC1)c1cc2cnccc2[nH]1 [N-(3-((1-(2-fluorobenzoyl)piperidin-4-yl)oxy)propyl)-1H-pyrrolo[3,2-c]pyridine-2-carboxamide] | 177
21 | O=C(NCCc1ccc(OCc2ccccc2)cc1)c1cc2cnccc2[nH]1 [N-(4-(benzyloxy)phenethyl)-1H-pyrrolo[3,2-c]pyridine-2-carboxamide] | 2000
22 | Cn1cc(CC(=O)N2CCC(CCCCNC(=O)c3cc4cnccc4[nH]3)CC2)c2ccccc21 [N-(4-{1-[2-(1-methyl-1H-indol-3-yl)acetyl]piperidin-4-yl}butyl)-1H-pyrrolo[3,2-c]pyridine-2-carboxamide] | 11.2
23 | O=C(NCCCCC1CCN(C(=O)c2cc(F)ccc2F)CC1)c1cc2ccncc2s1 [N-(4-{1-[(2,5-difluorophenyl)carbonyl]piperidin-4-yl}butyl)thieno[2,3-c]pyridine-2-carboxamide] | 1.6
24 | Cc1cccc(C(=O)N2CCC(CCCCNC(=O)c3cc4ccncc4s3)CC2)c1F [N-(4-{1-[(2-fluoro-3-methylphenyl)carbonyl]piperidin-4-yl}butyl)thieno[2,3-c]pyridine-2-carboxamide] | 12.6
25 | COc1cc(OC)cc(C(=O)N2CCC(CCCCNC(=O)c3ccc4nccn4c3)CC2)c1 [N-(4-{1-[(3,5-dimethoxyphenyl)carbonyl]piperidin-4-yl}butyl)imidazo[1,2-a]pyridine-6-carboxamide] | 2.8
26 | O=C(NCCCCC1CCN(C(=O)c2cccc(Cl)c2)CC1)c1cc2cnccc2[nH]1 [N-(4-{1-[(3-chlorophenyl)carbonyl]piperidin-4-yl}butyl)-1H-pyrrolo[3,2-c]pyridine-2-carboxamide] | 11.9
27 | COc1cccc(C(=O)N2CCC(CCCCNC(=O)c3cc4cnccc4[nH]3)CC2)c1 [N-(4-{1-[(3-methoxyphenyl)carbonyl]piperidin-4-yl}butyl)-1H-pyrrolo[3,2-c]pyridine-2-carboxamide] | 3.8
28 | COc1cccc(C(=O)N2CCC(CCCCNC(=O)c3ccc4nccn4c3)CC2)c1 [N-(4-{1-[(3-methoxyphenyl)carbonyl]piperidin-4-yl}butyl)imidazo[1,2-a]pyridine-6-carboxamide] | 6.6
29 | O=C(NCCCCC1CCN(C(=O)c2ccc(F)cc2)CC1)c1cc2cnccc2[nH]1 [N-(4-{1-[(4-fluorophenyl)carbonyl]piperidin-4-yl}butyl)-1H-pyrrolo[3,2-c]pyridine-2-carboxamide] | 14.7
30 | COc1ccc(Cl)cc1C(=O)N1CCC(CCCCNC(=O)c2cc3cnccc3[nH]2)CC1 [N-(4-{1-[(5-chloro-2-methoxyphenyl)carbonyl]piperidin-4-yl}butyl)-1H-pyrrolo[3,2-c]pyridine-2-carboxamide] | 3.3
31 | O=C(NCCCCC1CCN(C(=O)c2ccc(-n3cccn3)cc2)CC1)c1ccc2nccn2c1 [N-[4-(1-{[4-(1H-pyrazol-1-yl)phenyl]carbonyl}piperidin-4-yl)butyl]imidazo[1,2-a]pyridine-6-carboxamide] | 67.1

— patent US9555039B2, “Piperidine derivatives and compositions for the inhibition of nicotinamide phosphoribosyltransferase (NAMPT)” (Forma TM, LLC., priority 2011, dated 2017)
